Earlier results as cited in patent US6903052B2, “Nematicidal compositions and methods” (Divergence, Inc., priority 2002, dated 2005).

What was measured:
[1] = system: isolated intestinal epithelial cells; details: Gaginella et al. (1977); cited from earlier work
[2] = system: everted hamster jejunal and ileal segments; details: Gaginella et al. (1975); cited from earlier work

CCCCCC[C@@H](O)C/C=C\CCCCCCCC(=O)O [Ricinoleic acid, reference compound]
Cytotoxicity [1]: cytotoxic | Effect on water (and electrolyte) absorption [2]: inhibitory effect on water and electrolyte absorption
